Where two headings read alike, the source gives them in different places.
Legend:
[1] = tested on: sarcosyl-insoluble tau in the brain of tau N279K Tg mice; assay: Tau aggregation inhibitory activity in mice with oral administration (brain sarcosyl-insoluble tau ELISA); type: in vivo; details: oral 10, 20, or 40 mg/kg bw/day, four weeks (FIG. 4)
Procedure: Pharmacological test example 6: Determination of tau aggregation inhibitory activity in mice with oral administration
To tau N279K Tg mice (male, 8 months old, n=8), the compound of Example 2 was orally administered and the tau concentration in the brain was measured. The administration vehicle was an 80% PEG 400 aqueous solution. The dose volume was 10 mL/kg bw/day and the dose was adjusted to be 10, 20, or 40 mg/kg bw/day. To Vehicle group, 10 mL/kg bw/day of an 80% PEG 400 aqueous solution was administered. To Positive control compound group, methylene blue (MB) adjusted to be 40 mg/kg bw/day was administered. Administration was performed with an oral feeding tube (Fuchigami Kikai Company) by gavage and continued for four weeks. After termination of the administration, the mice were sacrificed under pentobarbital anesthesia and the brain was harvested. The brain was homogenized after addition of a 5-fold volume of a high salt buffer (0.8 M NaCl, 1 mM EGTA, 10 mM Tris-HCl, 10% sucrose). […] An amount of 100 μL of a reaction stop solution was added to stop the chromogenic reaction and the absorbance was measured at 450 nm with a microplate reader. The tau concentration was determined from the standard curve produced from the measured values of the standard curve dilution series.

[2] = Evaluation of in vivo pharmacokinetics (blood and brain concentrations, LC-MS/MS); details: SD rats
Procedure: Pharmacological test example 4: Evaluation of in vivo pharmacokinetics
To SD rats (male, 7 weeks old), the test compound was orally administered (p. o.) at an amount of 50 mg/kg bw or intravenously administered (i.v.) at an amount of 1 mg/kg bw and the concentrations in the blood and brain were measured up to 3 hours. The administration vehicle was an 80% PEG 400 aqueous solution. The blood was collected under isoflurane inhalational anesthesia and the brain was harvested after the rats were sacrificed. The plasma was separated from the blood. The brain was homogenized after addition of a three-fold volume of PBS and then methanol was added thereto. Thus the prepared test samples were subjected to measurement. The measurement was performed by LC-MS/MS (Applied Biosystems and Waters).
The blood concentration changes of the compounds of Example 2 and Example 2 (2) ((1E,6E)-1-(1H-indol-6-yl)-7-[2-methoxy-4-(2-pyridylmethoxy)phenyl]hepta-1,6-diene-3,5-dione) after oral administration (p.o.) thereof are shown in FIG. 2. The brain concentration changes of the compounds after intravenous administration (i.v.) and oral administration (p.o.) thereof are shown in Table 2.

[3] = tested on: Aβ 1-42 in the brain of APPswe/PS1dE9 Tg mice; assay: Aβ aggregation inhibitory activity and Aβ production inhibitory activity in mice with oral administration (brain Aβ 1-42 ELISA); type: in vivo; details: oral 25 or 50 mg/kg bw/day, four weeks (FIG. 3)
Procedure: Pharmacological test example 5: Determination of Aβ aggregation inhibitory activity and Aβ production inhibitory activity in mice with oral administration
To APPswe/PS1dE9 Tg mice (male, 10 to 12 months old, n=8 to 10), the compound of Example 2 was orally administered and the concentration of Aβ in the brain was measured. The administration vehicle was an 80% PEG 400 aqueous solution. The dose volume was 10 mL/kg bw/day and the dose was adjusted to be 25 mg/kg bw/day or 50 mg/kg bw/day. To Vehicle group, 10 mL/kg bw/day of an 80% PEG 400 aqueous solution was administered. Administration was performed with an oral feeding tube (Fuchigami Kikai Company) by gavage and continued for four weeks. After termination of the administration, the mice were sacrificed under pentobarbital anesthesia and the brain was harvested. The brain was homogenized after addition of a 10-fold volume of a phosphoric acid buffer (pH 7.4) and the homogenate was centrifuged at 4° C., 16,000 g for 1 hour. The centrifugal supernatant was used as a soluble protein sample. […] An amount of 100 μL of a reaction stop solution was added to stop the chromogenic reaction and the absorbance was measured at 450 nm with a microplate reader (Bio-Rad). The Aβ concentration was determined from the standard curve produced from the measured values of the standard curve dilution series.

[4] = target: T1, recombinant human β-secretase (Homo sapiens, UniProt P56817); assay: Determination of β-secretase inhibitory activity (BACE-1 FRET assay Kit); type: biochemical; details: recombinant human β-secretase, fluorescent substrate peptide, 1 hour; read-out: IC50 (μM) Test example 2 (β-secretase inhibitory activity)
T1 construct: purchased Invitrogen
Procedure: Pharmacological Test Example 2: Determination of β-Secretase Inhibitory Activity
The β-secretase inhibitory activity was measured with BACE-1 FRET assay Kit (Invitrogen). The test compounds were prepared using DMSO at 30-fold of their final concentrations and dissolved so that the DMSO concentration would be 10%. To each of the solutions, an equal volume of a recombinant human β-secretase (1 U/mL) dissolved in the assay buffer and an equal volume of fluorescent substrate peptide (2.5 nM) were added and the solutions were left to stand for 1 hour. The fluorescence intensity was measured with a fluorescence plate reader (excitation wavelength: 545 nm; emission wavelength: 590 nm).
The final concentration of each compound at the time of measurement was set at 0.1, 0.3, 1, 3, and 10 μM, at 0.3, 1, 3, 10, and 30 μM, or at 1, 3, 10, 30, and 100 μM.

T1 sequence (P56817 46-501): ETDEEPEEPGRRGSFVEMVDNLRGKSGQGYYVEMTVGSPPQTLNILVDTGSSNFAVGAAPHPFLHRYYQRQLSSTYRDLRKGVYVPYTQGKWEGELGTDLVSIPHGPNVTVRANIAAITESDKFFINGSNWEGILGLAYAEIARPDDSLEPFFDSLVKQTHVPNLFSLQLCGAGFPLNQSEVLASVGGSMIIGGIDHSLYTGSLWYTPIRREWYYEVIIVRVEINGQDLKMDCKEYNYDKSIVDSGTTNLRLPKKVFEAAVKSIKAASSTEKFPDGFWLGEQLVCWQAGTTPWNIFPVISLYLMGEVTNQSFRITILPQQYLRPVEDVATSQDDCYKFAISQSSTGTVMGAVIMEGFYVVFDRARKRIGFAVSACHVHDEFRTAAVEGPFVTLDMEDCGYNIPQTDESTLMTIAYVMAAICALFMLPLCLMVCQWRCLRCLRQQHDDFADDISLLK

COc1cc(OCc2ccccn2)ccc1/C=C/c1cc(/C=C/c2ccc3cc[nH]c3c2)[nH]n1 [Example 2, 3-[(1E)-2-(1H-indol-6-yl)ethenyl]-5-[(1E)-2-[2-methoxy-4-(2-pyridylmethoxy)phenyl]ethenyl]-1H-pyrazole]
amount of the sarcosyl-insoluble tau in the brain [1]: decreased in a dose-dependent manner
blood and brain concentrations compared with the compound of Example 2 (2) ([2]; p.o. 50 mg/kg bw or i.v. 1 mg/kg bw (FIG. 2, Table 2)): higher blood and brain concentrations
concentration at 5 min ([2]; male, rat, intravenous 1 mg/kg bw, 5 min, brain, read-out: brain concentration i.v. 5 min): 48.7 ng/mL
concentration at 180 min ([2]; male, rat, intravenous 1 mg/kg bw, brain, read-out: brain concentration i.v. 180 min): 17.5 ng/mL
concentration at 60 min ([2]; male, rat, oral 50 mg/kg bw, 60 min, brain, read-out: brain concentration p.o. 60 min): 8.54 ± 2.93 ng/mL
concentration at 180 min ([2]; male, rat, oral 50 mg/kg bw, brain, read-out: brain concentration p.o. 180 min): 68.9 ± 39.4 ng/mL
amount of insoluble Aβ 1-42 in the brain [3]: decreased in a dose-dependent manner
amount of soluble Aβ 1-42 in the brain [3]: decreased in a dose-dependent manner
IC50 [4]: 3 µM

— patent publication US9399635B2, “Pyrazole derivative” (GREEN TECH CO., LTD., priority 2011, dated 2016)
